Source: patent US5665769A, “Pharmaceutical composition for preventing and treating retinal diseases” (Senju Pharmaceuticals Co., Ltd., priority 1993, dated 1997)
Values joined by “and” are separate entries in the source; they are usually repeats but may differ in a detail not shown here. Identical values can stand only once.

Columns and labels:
[1] = system: bovine retinal homogenates; assay: Peroxidation of bovine retinal homogenate by light exposure in presence of hematoporphyrin, TBA value (Experiment 2 (A)); format: biochemical; details: 10^-4 M
Experimental: (A) In vitro experiment using bovine retinal homogenates
Antioxidative effects of 2-O-octadecylascorbic acid on peroxidation caused by light exposure of bovine retinal homogenates in the presence of hematoporphyrin (hereinafter referred to as HPP) were examined.
(1) HPP (100 μM, dissolved in ethanol), 2-O-octadecylascorbic acid (10^-4 M) and water were added to a retinal homogenate prepared by the same manner as that of the above Experiment 1 (A) Method (1). The mixture was irradiated with a fluorescent lamp (daylight lamp, 15 W, 3000 lux) from 20 cm above for 1 hour. The final concentration of ethanol in the reaction mixture was adjusted to 2%.
(2) One hour after the light exposure, according to the same manner as that of the above Experiment 1 (A) Method (3), lipidperoxides were determined by the TBA reaction and proteins were determined using Bio-Rad Protein Assay Kit (trade name).

retina (ERG in rats) [2] = assay: ERG changes induced by intravitreous injection of ferrous sulfate in rats (Experiment 1 (B-2)); format: in vivo, SD rats; details: 30 mg/kg oral
From the text: FIG. 1 is a graph showing the a-wave amplitude of ERG in rats after intravitreous injection of ferrous ion in Experiment 1 (B-2). The abscissa indicates time (hour) and the ordinate indicates percentage (%) relative to the initial amplitude. In FIGS. 1 to 5, the compound (I) is 2-O-octadecylascorbic acid. FIG. 2 is a graph showing the b-wave latency of ERG in rats after intravitreous injection of ferrous ion in Experiment 1 (B-2). The abscissa indicates time (hour) and the ordinate indicates percentage (%) relative to the initial amplitude. FIG. 3 is a graph showing the b-wave amplitude of ERG in rats after intravitreous injection of ferrous ion in Experiment 1 (B-2). The abscissa indicates time (hour) and the ordinate indicates percentage (%) relative to the initial amplitude. (B-2) Evaluation by Electroretinogram (hereinafter referred to as ERG) determination Effects of oral administration of 2-O-octadecylascorbic acid (30 mg/kg) on the changes of ERG induced by intravitreous injection of ferrous sulfate in rats were examined. Twelve SD rats (7 weeks old) were fasted from the previous day. A 7.5 mM ferrous sulfate (5 μl) solution was injected intravitreously into each of the left eyes. A 1.5% suspension of 2-O-octadecylascorbic acid (30 mg/kg) or a 5% solution of gum arabic (control) was firstly administered orally 2 hours before the ferrous ion injection, and thereafter administered three times every 3 hours and then three times every 5 hours. ERG was determined 6, 9 and 24 hours after the ferrous ion injection and evaluated for the latency and amplitude of a-wave and b-wave.

mice = assay: Acute toxicity test in mice (Experiment 3); format: in vivo
Experimental: Acute toxicity test of 2-O-octadecylascorbic acid
2-O-octadecylascorbic acid was tested for the acute toxicity test in mice. As a result, no mouse died even in oral administration of 1000 mg/kg. This compound has therefore low toxicity.

retina (ERG in rats) [3] = assay: ERG in rats after light exposure for 3 days (Experiment 2 (B-2), Method 1); format: in vivo; details: 5.0% suspension, oral 200 mg/kg/day on day of light exposure, 100 mg/kg/day other days; light 3 days
Experimental: FIG. 4 is a graph showing the b-wave amplitude of ERG in rats after light exposure for 3 days in Experiment 2 (B-2)(Method 1). The abscissa indicates time (day) after light exposure and the ordinate indicates b-wave amplitude (mv).
(B-2) Evaluation by ERG determination
Rats were subjected to dark adaptation for 24 hours. Continuous light exposure for 20 hours was repeated for 3 successive days using a green fluorescent lamp (490-580 nm), the illumination intensity of which was adjusted to 600 to 700 lux. ERG was measured for 3 successive days after dark adaptation for 2 hours after completion of everyday light exposure. After that, the rats were reared in a dark room, and ERG was measured on the 7th day after the light exposure, and evaluated for the amplitude of a-wave and b-wave and the latency of a-wave. From the day before the light exposure, a 5.0% 2-O-octadecylascorbic acid suspension or 5.0% gum arabic solution (control) was orally administered twice a day (200 mg/kg/day) on the day of the light exposure and once a day (100 mg/kg/day) on other days.

retina (rat) = assay: Retinal light damage in rats, histopathology and retinal thickness (Experiment 2 (B-1)); format: in vivo; design: key to Vacuolation of retinal pigment epithelium / Disarrangement or vacuolation of inner and outer segments of visual cells / Infiltration of macrophage / Pyknosis and nuclear disappearance in outer nuclear layer / Thinning of retinal entire layer: -: not observable; ±: slightly observable; +: observable; ++: remarkably observable; details: for Vacuolation of retinal pigment epithelium / Disarrangement or vacuolation of inner and outer segments of visual cells / Infiltration of macrophage / Pyknosis and nuclear disappearance in outer nuclear layer / Thinning of retinal entire layer: one line per animal
Experimental: (B) In vivo experiment by light exposure in rats
(B-1) Evaluation by retinal pathological tissues and rhodopsin amount
Rats were subjected to dark adaptation for 72 hours. Then the rats were irradiated continuously for 12 hours using a green fluorescent lamp (10 W, 490-580 nm), the illumination intensity of which was adjusted to 2000 to 2400 lux. A suspension of 1.5% or 5.0% 2-O-octadecylascorbic acid was orally administered three times a day (90, 300 mg/kg/day) on the day of light exposure, and once a day (30, 100 mg/kg/day) after that. To the control group was administered 5.0% gum arabic solution (control) according to the same schedule. After completion of the light exposure, the rats were reared in a dark room and sacrificed on the 5th day. The right eyes were marked with ink in the upper part and fixed with 2% paraformaldehyde and 2% glutaraldehyde solutions. Histopathological evaluation was made using a light microscope and the thickness of retinae (thickness of retinal entire layer and outer nuclear layer) was measured. The left eyes were stored under freezing conditions at -20° C. for rhodopsin determination after removal of the cornea, lens and vitreous body.

[4] = 9 hours after ferrous ion injection, compared to control
[5] = 1.5% suspension, mean ± S.D., n=5
[6] = 1.5% suspension, Nos. 1-5 in order
[7] = 5.0% suspension, mean ± S.D., n=3
[8] = 5.0% suspension, Nos. 1-3 in order

## CCCCCCCCCCCCCCCCCCOC1=C(O)[C@@H]([C@@H](O)CO)OC1=O [2-O-octadecylascorbic acid]
[1]
  inhibitory effect on light-induced peroxidation: significant inhibitory effect was observed
[1]; HPP 100 μM, light 3000 lux 1 hour, mean ± S.D., n=3, p < 0.001 vs control
  Retina: TBA value: 1.31 ± 0.21 nM malondialdehyde/mg protein
Retina (ERG in rats) [2]; [4]
  decrease of the amplitude of a-wave and b-wave: more marked tendency to inhibit the decrease of the amplitude of a-wave and b-wave
  delay of the b-wave latency: the delay of the b-wave latency was significantly inhibited
Retina (ERG in rats) [2]; 24 hours after ferrous ion injection, both groups
  recovery of amplitude: The amplitude was not recovered even in the determination after 24 hours
Retina (ERG in rats) [2]; from 6 hours after ferrous ion injection, both groups
  delay of the latency and decrease of the amplitude of a-wave and b-wave: strongly observed in both groups
mice; acute toxicity, mice, oral
  toxicity: low toxicity
mice; mouse, in vivo, po, 1000 mg/kg
  mortality: no mouse died
Retina (ERG in rats) [3]
  decrease of the b-wave amplitude: the tendency to inhibit the decrease of the b-wave amplitude was observed
Retina (rat); 1.5% suspension
  examples (animals) with remarkably observed retinal lesions: four of five examples
Retina (rat); 1.5% suspension (90 mg/kg/day oral on day of exposure, then 30), Nos. 1-5 in order
  Vacuolation of retinal pigment epithelium: +
Retina (rat); [5]
  Thickness of outer nuclear layer, lesion: 16.0 ± 7.2 µM
  Thickness of outer nuclear layer, near optic disk: 39.0 ± 8.8 µM
  Thickness of retinal entire layer, lesion: 88.5 ± 22.3 µM
  Thickness of retinal entire layer, near optic disk: 135.5 ± 27.9 µM
Retina (rat); [6]
  Disarrangement or vacuolation of inner and outer segments of visual cells: ++ (4×) and +
  Infiltration of macrophage: ++ (4×) and -
  Pyknosis and nuclear disappearance in outer nuclear layer: ++ (4×) and ±
  Thinning of retinal entire layer: ++ (4×) and -
Retina (rat); 5.0% suspension
  examples (animals) with remarkably observed retinal lesions: one of three examples
Retina (rat); 5.0% suspension (300 mg/kg/day oral on day of exposure, then 100), Nos. 1-3 in order
  Vacuolation of retinal pigment epithelium: - and + (2×)
Retina (rat); 5.0% suspension, compared with control
  thickness of the retinal entire layer near optic disk (in words): significantly larger than that in the control group
Retina (rat); 5.0% suspension, compared with control group
  severity of lesions: not so severe as those of the control group
Retina (rat); [7]
  Thickness of outer nuclear layer, lesion: 19.2 ± 11.3 µM
  Thickness of outer nuclear layer, near optic disk: 48.3 ± 1.4 µM
  Thickness of retinal entire layer, lesion: 84.2 ± 16.3 µM
Retina (rat); [8]
  Disarrangement or vacuolation of inner and outer segments of visual cells: ± and + and ++
  Infiltration of macrophage: - (2×) and ++
  Pyknosis and nuclear disappearance in outer nuclear layer: ± and + and ++
  Thinning of retinal entire layer: - and + and ++
Retina (rat); suspension administered groups, compared with control
  thickness of the outer nuclear layer near optic disk (in words): tends to be larger than that in the control group
